The NIST ThermoML archive (doi:10.1021/acs.jced.7b00023)
± gives the expanded uncertainty stated by the source.

Experiments:
[1] = wn = mass fraction of the nth substance listed; settings: 101.3 kPa, Liquid, Vibrating tube method
[2] = refractive index (Na D-line) (dimensionless); wn = mass fraction of the nth substance listed; settings: 101.3 kPa, Liquid, Standard Abbe refractometry

mass density ([1]; 298.15 K, w1 = 0.6538) [kg/m3] | mass density ([1]; 308.15 K, w1 = 0.6693) [kg/m3] | mass density ([1]; 318.15 K, w1 = 0.6788) [kg/m3] | refractive index ([2]; 298.15 K, w1 = 0.6538) | refractive index ([2]; 308.15 K, w1 = 0.6693) | refractive index ([2]; 318.15 K, w1 = 0.6788) | mass density ([1]; 298.15 K, w1 = 0.263) [kg/m3] | mass density ([1]; 308.15 K, w1 = 0.2666) [kg/m3] | mass density ([1]; 318.15 K, w1 = 0.2669) [kg/m3] | refractive index ([2]; 298.15 K, w1 = 0.263) | refractive index ([2]; 308.15 K, w1 = 0.2666) | refractive index ([2]; 318.15 K, w1 = 0.2669) | SMILES
1923.9 ± 3.6 | 1946.1 ± 3.6 | 1980.8 ± 3.7 | 1.4196 ± 0.002 | 1.4204 ± 0.002 | 1.4218 ± 0.002 |  |  |  |  |  |  | [Cl-].[Cs+] [cesium chloride] + O
 |  |  |  |  |  | 1197.8 ± 3.1 | 1193.6 ± 3.1 | 1188.9 ± 3.1 | 1.3796 ± 0.002 | 1.3781 ± 0.002 | 1.3766 ± 0.002 | [Cl-].[Na+] [sodium chloride] + O
